{
  "source": "patent US20050085553A1",
  "about": "“Remedies for mild recognition deflict” (priority 2001, published 2005)",
  "key": {"[1]": {"test_system": "Fisher344 rats (27-month old, male)", "experiment": "water maze test, learning deficit in old rats", "type": "in vivo, rat", "details": "0.3 or 1.0 mg/kg orally once a day for 14 days", "description": "An Ameliorative Effect of the Agent on Learning Deficit in Old Rats\nFisher344 rats (27-month old, male) were previously subjected to four trials of a water maze test using a pool with a diameter of 90 cm and a platform on the surface of water in the pool. The rats with remarkable disability to swim were excluded and the rest were divided into several groups. The compound A (0.3 or 1.0 mg/kg) was orally administered to the rats once a day for 14 days. On the 10th day, the rats were subjected to four trials of a water maze test using a platform on the surface of water in a pool and confirmed again that they had no difficulty in swimming ability. Starting from the next day, the rats were subjected four times a day for 3 days to a water maze test using a pool with a diameter of 120 cm and a platform submerged below the surface of water in the pool. In this test, the time required for the rats to arrive at the platform was measured. Two trials were expressed as one block. During the behavioral pharmacological test period, the drug was administered after the test."}, "insoluble Aβ40": {"test_system": "insoluble Aβ40", "experiment": "quantity of insoluble Aβ40 in cerebral cortex of transgenic mice with Swedish APP mutation (ELISA)", "type": "in vivo, mouse", "details": "feed containing 56 ppm (about 7 mg/kg/day) for six months, 13-14 month old mice", "description": "(§1) An Effect on Increase in Insoluble Aβ40/42 and Amyloid Plaque Formation in the Brains of Transgenic Mice with Swedish APP Mutation\n(§2) Transgenic mice with Swedish amyloid precursor protein (APP) mutation (7- to 8-month old) were given solid feed containing the compound A (56 ppm) (equivalent to a dosage of about 7 mg/kg/day) or control feed for six months. After six months from the administration, one cerebral hemisphere was used for brain histological examination and the other hemisphere was used for determining the quantity of Aβ40/42. Cerebral cortex was used for measuring the quantity of Aβ. The accumulation type of insoluble Aβ40/42 protein were extracted by homogenization of the cerebral cortex in 25 times amount of Tris buffer (containing a protease inhibitor) followed by centrifugation to remove the supernatant. Then, 19 times amount of 70% formic acid was added to the insoluble precipitation and homogenized to solubilize it. After centrifugation, the supernatant was diluted to 1/20 with 1M Tris solution for neutralization and the diluted supernatant was used for determining the quantity of Aβ40/42 contained therein. Using enzyme-linked immunosorbent assay (ELISA), the quantity of accumulation-type Aβ40/42 was measured."}, "insoluble Aβ42": {"test_system": "insoluble Aβ42", "experiment": "quantity of insoluble Aβ42 in cerebral cortex of transgenic mice with Swedish APP mutation (ELISA)", "type": "in vivo, mouse", "details": "feed containing 56 ppm (about 7 mg/kg/day) for six months, 13-14 month old mice", "description": "as §1, §2"}, "amyloid plaques": {"test_system": "amyloid plaques", "experiment": "number and area of amyloid plaques, brain sections immunostained with BAN50", "type": "in vivo, mouse", "details": "feed containing 56 ppm (about 7 mg/kg/day) for six months; sections containing dorsal hippocampus", "description": "as §1\nas §2, with “measured. […]” for “measured.”"}, "[2]": {"test_system": "transgenic mice with Swedish APP mutation", "experiment": "general condition of the mice during the drug administration period", "type": "in vivo, mouse", "details": "feed containing 56 ppm (about 7 mg/kg/day) for six months", "description": "as §2"}},
  "data": [
    {"smiles": "CN(C)CC[C@@H]1CCc2cc(OCc3ccc(-c4ccccc4)cc3)ccc2C1.Cl.O", "note": "[compound A, (R)-(+)-6-(4-biphenylyl)methoxy-2-[2-(N,N-dimethylamino)ethyl]tetralin Hydrochloride Monohydrate]", "values": [
      {"measurement": "swimming time for escape", "setting": "[1]; final training block, compared between the groups", "value": "significantly shortened"},
      {"measurement": "time required to arrive at the platform", "setting": "[1]; water maze, large pool (120 cm), submerged platform, vs old control group", "value": "significantly improved"},
      {"measurement": "reduction of quantity of insoluble Aβ40 in contrast to the vehicle group", "setting": "insoluble Aβ40", "value": "about 30%"},
      {"measurement": "reduction of quantity of insoluble Aβ42 in contrast to the vehicle group", "setting": "insoluble Aβ42", "value": "about 30%"},
      {"measurement": "area of amyloid plaques, relative to the vehicle group", "setting": "amyloid plaques", "value": "~35 % of those in the vehicle group"},
      {"measurement": "number of amyloid plaques, relative to the vehicle group", "setting": "amyloid plaques", "value": "about 40 % of those in the vehicle group"},
      {"measurement": "change in the general condition of the mice including weight loss", "setting": "[2]", "value": "no change"}
    ]}
  ]
}
